# Test results reported in patent US7700106B2, “Therapeutic agent for ulcerative colitis” (priority 2001, dated 2010).
# What was measured:
# [1] = system: mice
# [2] = system: Fusobacterium varium; test: Susceptibility of Fusobacterium varium to antimicrobial agents; assay type: cell-based
# Source text: The susceptibility to Fusobacterium varium in antimicrobial agents was examined.
Compound,"colonic lesions after enema ([1]; mice, twenty-four hours after enema)","lesion after injection into the rectum ([1]; mouse, injected into the rectum)",resistance of Fusobacterium varium to antimicrobial agent [2]
CCCC(=O)O [butyric acid],"colonic ulcers with crypt abscesses, inflammatory cell infiltration and apoptotic changes",a lesion similar to ulcerative colitis was induced,–
CC[C@H]1OC(=O)[C@H](C)[C@@H](O[C@H]2C[C@@](C)(OC)[C@@H](O)[C@H](C)O2)[C@H](C)[C@@H](O[C@@H]2O[C@H](C)C[C@H](N(C)C)[C@H]2O)[C@](C)(OC)C[C@@H](C)C(=O)[C@H](C)[C@@H](O)[C@]1(C)O [clarithromycin],–,–,resistant
CC[C@H]1OC(=O)[C@H](C)[C@@H](O[C@H]2C[C@@](C)(OC)[C@@H](O)[C@H](C)O2)[C@H](C)[C@@H](O[C@@H]2O[C@H](C)C[C@H](N(C)C)[C@H]2O)[C@](C)(O)C[C@@H](C)C(=O)[C@H](C)[C@@H](O)[C@]1(C)O [erythromycin],–,–,resistant
[H]/N=C(/N)N[C@H]1[C@H](O)[C@@H](O)[C@H](O[C@@H]2O[C@@H](C)[C@](O)(C=O)[C@H]2O[C@@H]2O[C@@H](CO)[C@H](O)[C@@H](O)[C@@H]2NC)[C@@H](N/C(N)=N\[H])[C@@H]1O [streptomycin],–,–,resistant
gentamycin,–,–,resistant
